Data on nine molecules can be found in US8314103B2, “Pyridyl derivatives, their preparation and use” (Piramal Enterprises Limited, priority 2007, dated 2012).

The structures appear in SMILES notation. A value given as a limit tells only on which side of the number the result lay.

For one data set, the system named is HIF-1α. The data set is described as follows: HIF-1α assay (luciferase reporter gene, U251 HRE / U251 pGL3 cells). Format: cell-based, human. To be noted: SI greater than 4 indicates specificity towards HIF-1α inhibition under hypoxia conditions. For orientation: Reporter assays use an easily measured gene product as a stand-in for the process of interest.
For another data set, the target named is T1, mTOR (Homo sapiens, UniProt P42345).
T1 construct: endogenous in cells
The data set is described as follows: Cell based mTOR assay. To be noted: IGF-I induced AKT/p70S6K1 phosphorylation; read-out: Inhibition of mTOR (cell-based): IC50. The method, then:
The mTOR assay was designed as given in Biochem J., 2000, 350, 717-722 with modifications as described below.
Cells were seeded in a 96 well microtitre plate at a density of 50,000 cells/cm^2 in appropriate complete cell culture medium. The cells were allowed to adhere for 18-24 hours. The cells were pretreated (in triplicates) with the test compound at a concentration of 10 μM for 30 minutes followed by induction with 400 ng/ml IGF-I for 24 hours (to induce AKT and p70S6K1 phosphorylation). A typical assay would consist of a set of unstimulated well, a set of stimulated and a set each of wells treated with compound and the stimulator. The medium was discarded. The cells were fixed with 100 μl of 3.7% formaldehyde for 15 minutes. The formaldehyde was discarded by inverting the plate and tapping it on a thick tissue paper layer to remove traces. The cells were washed and permeabilized with 200 μL PBS-Triton solution (containing 0.1% triton-X 100 in 1× PBS) three times, incubating the cells each time for 5 minutes. 100 μL blocking solution (10% FCS in PBS-Triton) was added and incubated for 1 hour at room temperature. The blocking solution was discarded and cells were incubated with the primary antibody in PBS-Triton at a dilution of 1:500 for 1 hour at room temperature. [The primary antibody is Phospho-AKT (Ser 473); Cell Signaling; Cat. No. 9271; Phospho p70S6K1 (Thr 389), Cell Signaling, Cat. No. 9205]. The primary antibody solution was discarded and the cells were washed 3 times with PBS-Triton solution and incubated with the HRP-conjugated secondary antibody in PBS-Triton at a dilution of 1:500 for 1 hour at room temperature. The cells were washed 3 times with PBS-Triton followed by two washes with PBS (to remove traces of triton-X 100). The OPD (o-phenylene diamine dihydrochloride) substrate was prepared for detection of the signal by dissolving one tablet set (two tablets) of SigmaFast OPD (Sigma, Cat No. P9187) in 20 mL distilled water, and was protected from light. 100 μL OPD solution was added to the wells and the plate was incubated in the dark for 3-5 minutes (depending upon the development of the colour). The reaction was stopped by adding 50 μL 2 N sulphuric acid (H2SO4). The absorbance was measured at 490 nm. The values were expressed in the treated samples, in terms of percentage or fold decrease in AKT/p70 phosphorylation with respect to the induced sample.

The nature of another data set: Cytotoxicity assay (MTS). Format: cell-based. To be noted: human, panel of HIF over expressing cell lines, average across a panel of HIF overexpressing cell lines, read-out: Cytotoxic Potential (MTS/PI), average IC50. The method, then: Cytotoxicity and Anti-proliferative Assay
Cytotoxic potential of compounds of the present invention was tested using various HIF over expressing cell lines (source and culture conditions as described in Table-1 herein above). Cells were seeded at a density of 3000-5000 cells per well in 180 μL volume in transparent 96 well tissue culture plate (NUNC, USA) and incubated for 12-18 hours at 37° C., 5% CO2. Subsequently, 20 μL of compounds of present invention (diluted in medium at concentrations ranging from 30 μM, 10 μM, 3 μM, 1 μM, 0.3 μM or 0.1 μM) were added to each well. Cells were then incubated for 48 hours at 37° C., 5% CO2. Following the incubation, 20 μL of MTS solution with PMS (Promega) was added in each well. After 4 hours incubation, the absorbance of the fluid in each well was determined at 490 nm using a microwell plate spectrophotometer reader (Molecular Devices, Sunnyvale, Calif., USA). In every experiment, each condition was run in triplicate wells.

For data set [1], the system named is HIF overexpressing cell lines. The data set is described as follows: Anti-proliferative assay (3H-Thymidine incorporation). Format: cell-based. Particulars: Homo sapiens; average across a panel of HIF overexpressing cell lines; 48 hours; read-out: Anti Proliferative Potential (3H-Thymidine), average IC50. The method, then: The anti-proliferative potential of compounds of present invention across a panel of cancer cell lines as described herein above was determined using ^3H-Thymidine incorporation. […] Cells were seeded at a density of 3000-5000 cells per well in 180 μL volume in transparent 96 well tissue culture plate (NUNC, USA) and incubated for 12-18 hours at 37° C., 5% CO2. Subsequently, 20 μL of compounds of present invention (diluted in medium at concentrations ranging from 30 μM, 10 μM, 3 μM, 1 μM, 0.3 μM or 0.1 μM) were added to each well. Cells were then incubated for 48 hours at 37° C., 5% CO2 After the incubation, all the medium from the plates was aspirated and ^3H-Thymidine was added to all wells at a concentration of 0.25 μCi/well in 200 μL it complete medium (RPMI with 10% FBS). Plates were incubated at 37° C., 5% CO2 for further 6-14 hours. Following this incubation period, cells from 96 well plates were harvested with the help of cell harvester (Packard, USA) on a 96 well glass-filter plate (Unifilter-96, GF/B, Packard, USA). The filter plates were dried completely at 60° C. for 1 hour or overnight at room temperature. After drying, the bottom of the plates was sealed with bottom seals and 0.05 mL/well of scintillate fluid was added per well (Microscint-O, Packard). The plates were sealed from the top, read on Scintillation counter (TopCount, Packard) and percent inhibition and IC50 were calculated.

The target of another data set is PI3Kα kinase (Homo sapiens, UniProt P42336). The data set is described as follows: PI3Kα kinase assay. Format: biochemical. To be noted: 10 μM ATP; read-out: Inhibition of PI3Kα (kinase): IC50. The protocol: The PI3K kinase assay was designed as given in Cell, 2006, 125, 733-747.
Sequence of PI3Kα kinase (P42336 whole entry): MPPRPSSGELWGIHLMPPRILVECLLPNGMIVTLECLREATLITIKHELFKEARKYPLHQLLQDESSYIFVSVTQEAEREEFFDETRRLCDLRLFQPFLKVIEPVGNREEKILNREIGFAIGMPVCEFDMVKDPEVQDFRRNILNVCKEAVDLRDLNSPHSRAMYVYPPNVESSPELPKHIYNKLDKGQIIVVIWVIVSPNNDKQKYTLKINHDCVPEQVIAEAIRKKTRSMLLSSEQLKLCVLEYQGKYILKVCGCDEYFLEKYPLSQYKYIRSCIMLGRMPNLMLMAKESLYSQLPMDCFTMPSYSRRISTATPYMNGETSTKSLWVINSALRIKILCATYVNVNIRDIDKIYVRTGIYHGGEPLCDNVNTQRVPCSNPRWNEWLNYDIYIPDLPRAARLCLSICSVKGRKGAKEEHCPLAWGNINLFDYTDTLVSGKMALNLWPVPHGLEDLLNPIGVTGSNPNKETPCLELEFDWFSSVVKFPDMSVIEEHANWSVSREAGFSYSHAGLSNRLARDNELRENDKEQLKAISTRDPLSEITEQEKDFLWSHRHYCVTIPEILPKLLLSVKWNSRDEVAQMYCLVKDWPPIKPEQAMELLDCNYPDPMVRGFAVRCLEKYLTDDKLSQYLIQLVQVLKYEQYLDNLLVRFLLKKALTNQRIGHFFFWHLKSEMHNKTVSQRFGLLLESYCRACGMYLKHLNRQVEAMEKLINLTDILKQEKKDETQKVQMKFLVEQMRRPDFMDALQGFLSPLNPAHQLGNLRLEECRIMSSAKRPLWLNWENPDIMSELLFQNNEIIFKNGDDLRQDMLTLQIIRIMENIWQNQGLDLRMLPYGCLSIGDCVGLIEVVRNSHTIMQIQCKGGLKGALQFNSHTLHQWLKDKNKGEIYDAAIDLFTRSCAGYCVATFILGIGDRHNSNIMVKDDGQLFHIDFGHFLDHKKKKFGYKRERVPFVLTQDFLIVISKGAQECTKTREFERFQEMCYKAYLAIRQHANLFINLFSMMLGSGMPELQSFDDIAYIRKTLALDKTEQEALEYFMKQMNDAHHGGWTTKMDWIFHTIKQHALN
Sequence of PI3Kα kinase (P27986 whole entry partner): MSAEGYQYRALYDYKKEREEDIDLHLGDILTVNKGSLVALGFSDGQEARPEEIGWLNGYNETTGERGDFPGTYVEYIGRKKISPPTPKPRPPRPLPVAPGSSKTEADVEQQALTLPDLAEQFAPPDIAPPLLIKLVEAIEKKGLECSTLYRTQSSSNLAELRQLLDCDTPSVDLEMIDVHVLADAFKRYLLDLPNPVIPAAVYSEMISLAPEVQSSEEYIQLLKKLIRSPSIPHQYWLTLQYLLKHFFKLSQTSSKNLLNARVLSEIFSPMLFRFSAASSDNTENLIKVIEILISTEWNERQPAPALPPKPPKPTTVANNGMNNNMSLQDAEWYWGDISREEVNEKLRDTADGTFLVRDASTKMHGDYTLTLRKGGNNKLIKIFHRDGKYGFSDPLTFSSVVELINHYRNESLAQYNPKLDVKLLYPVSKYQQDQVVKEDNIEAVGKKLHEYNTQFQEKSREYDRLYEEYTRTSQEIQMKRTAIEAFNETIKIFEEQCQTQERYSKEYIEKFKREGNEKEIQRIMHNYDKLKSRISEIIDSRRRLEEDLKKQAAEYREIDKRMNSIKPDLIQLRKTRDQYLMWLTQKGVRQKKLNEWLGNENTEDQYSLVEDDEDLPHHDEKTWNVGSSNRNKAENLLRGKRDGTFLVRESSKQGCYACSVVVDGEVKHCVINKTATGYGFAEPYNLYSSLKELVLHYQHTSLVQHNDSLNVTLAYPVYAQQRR
The kinase reaction was carried out in a 25 μL reaction in a 1.5 ml microcentrifuge tube. The reaction mixture consisted of kinase buffer (10 mM Hepes, pH 7.5, 50 mM MgCl2), 20 ng PI3Kα kinase, 12.5 μg phosphotidylinositol (PI), 10 μM adenosine triphosphate (ATP) and 1 μCi 32γP […]. The compounds of the present invention were added at appropriate concentrations. The reactions were incubated at 30° C. for 20 minutes and were stopped by adding 1:1 mixture of methanol and chloroform. The tube contents were mixed on a vortex mixer and centrifuged at 10000 rpm for 2 minutes. 10 μL of the organic (lower) phase was spotted on to a thin layer chromatography (TLC) plate. The spots were resolved in a mobile phase consisting of a 65:35 mixture of n-propanol and 2 M glacial acetic acid. The plates were dried and exposed to an X-ray film. The bands appearing as a result of 32 g P incorporation in PI were quantitated using the QuantityOne (BioRad) densitometry program.

Excerpt for HIF-1α: • U251-HRE: Genetically engineered U251 human glioma cells stably expressing a recombinant vector (pGL2-TK-HRE) in which the Luciferase reporter gene was under the control of hypoxia-responsive element and G418 vector. • U251-pGL3: To exclude compounds that can inhibit luciferase expression in non-specific and/or HIF-1 independent fashion a control cell line genetically engineered U251 human glioma cells stably expressing a recombinant vector (pGL3), U251-pGL3 was used.
U251 HRE and U251 pGL3 cells were grown and maintained in RPMI1640 medium supplemented with 5% FBS. Cells were seeded in 96 well plate at a density of 1.5×10^4 cells in 180 μL per well and incubated at 37° C., 5% CO2 overnight. […] The plates were incubated under two sets of conditions which were as follows.
• (<1% oxygen (O2), 5% CO2 and 94% Nitrogen, incubation temp 37° C.) Condition 2: Normoxia • (21% O2, 5% CO2 and 74% Nitrogen, incubation temp 37° C.)
Plates were incubated for 24 hours, thereafter cell were lysed with Lysis Buffer followed by addition of substrate. Plates were read for luminescence on POLARSTAR™ (or TOPCOUNT™).
To identify the specificity of the compounds of present invention to inhibit HIF-1α under hypoxia conditions, Specificity Index (SI) was calculated as follows:
An observed SI of greater than 4 indicates specificity towards HIF-1α inhibition under hypoxia conditions.

With `NC(=NO)c1ccc(NC(=O)CCl)cn1` [Example 4, 2-Chloro-N-(6-(N′-hydroxycarbamimidoyl)pyridin-3-yl)acetamide], the “Specificity Index” value in the data set with HIF-1α is more than 20. In addition, the IC50 on mTOR was determined as 5000 nM; in data set [1] it was 2000 ± 500 nM. Moreover, the IC50 at 48 h in “Cytotoxicity assay (MTS)” stood at 2200 ± 300 nM.
Consider `O=C(CCl)Nc1ccc(-c2noc(C(F)(F)F)n2)nc1` [Example 29, 2-Chloro-N-[6-(5-(trifluoromethyl)-1,2,4-oxadiazol-3-yl)pyridin-3-yl]acetamide], for which the “Specificity Index” value in the data set with HIF-1α was more than 9. Moreover, the IC50 at 48 h in the data set “Cytotoxicity assay (MTS)” worked out at 3500 ± 500 nM. Moreover, the IC50 in data set [1] stood at 1500 ± 400 nM.
In the same order, the values of `Cc1nc(-c2ccc(NC(=O)CCl)cn2)no1` [Example 30, 2-Chloro-N-[6-(5-methyl-1,2,4-oxadiazol-3-yl)pyridin-3-yl]acetamide] are more than 11, 3000 ± 500 nM and 1500 ± 200 nM.
For `O=C(CCl)Nc1ccc(-c2noc(C(F)(F)Cl)n2)nc1` [Example 41a, 2-Chloro-N-[6-(5-(chlorodifluoromethyl)-1,2,4-oxadiazol-3-yl)pyridin-3-yl]acetamide], the “Specificity Index” value in the data set with HIF-1α is more than 10. The IC50 at 48 h in “Cytotoxicity assay (MTS)” turned out to be 3500 ± 1000 nM.
For the molecule `O=C(CCl)Nc1ccc(-c2nc(O)cc(C(F)(F)F)n2)nc1` [Example 53, 2-Chloro-N-(6-(4-hydroxy-6-(trifluoromethyl)pyrimidin-2-yl)pyridin-3-yl)acetamide], the “Specificity Index” value with HIF-1α is recorded as more than 7. In addition, the IC50 at 48 h in the data set “Cytotoxicity assay (MTS)” came to 2000 ± 500 nM. Moreover, the IC50 in data set [1] came to 2000 ± 300 nM.
For `C=CCOc1cc(C(F)(F)F)nc(-c2ccc(NC(=O)CCl)cn2)n1` [Example 60, N-(6-(4-(allyloxy)-6-(trifluoromethyl)pyrimidin-2-yl)pyridin-3yl-)-2-chloroacetamide], the “Specificity Index” value in the data set on HIF-1α is on record as more than 15. Also, the IC50 at mTOR stood at 5000 nM; on PI3Kα kinase, 1500 nM; in data set [1], 800 ± 200 nM. Also, the IC50 at 48 h in “Cytotoxicity assay (MTS)” came out at 2000 ± 200 nM.
Turning to `COc1cc(C(F)(F)F)nc(-c2ccc(NC(=O)CCl)cn2)n1` [Example 61, 2-Chloro-N-(6-(4-methoxy-6-(trifluoromethyl)pyrimidin-2-yl)pyridin-3yl)acetamide], the IC50 on mTOR came out at 5000 nM; at PI3Kα kinase it was 1000 nM. Moreover, in “Cytotoxicity assay (MTS)”, the IC50 at 48 h was 3000 ± 200 nM.
With `C=CCOc1nc(-c2ccc(NC(=O)CCl)cn2)nc(C)c1CC` [Example 64, N-(6-(4-(allyloxy)-5-ethyl-6-methylpyrimidin-2-yl)pyridin-3yl)-2-chloroacetamide], the results for the IC50 (on mTOR; on PI3Kα kinase; in data set [1]) were 5000 nM, less than 1000 nM and 1000 ± 200 nM, respectively. Moreover, the IC50 at 48 h in the data set “Cytotoxicity assay (MTS)” stood at 1500 ± 200 nM.
`O=C(CCl)Nc1ccc(-c2nc(Cl)cc(C(F)(F)F)n2)nc1` [Example 71, 2-Chloro-N-(6-(4-chloro-6-(trifluoromethyl)pyrimidin-2-yl)pyridin-3-yl)acetamide]: the “Specificity Index” value in the data set on HIF-1α is more than 6. Further, in the data set “Cytotoxicity assay (MTS)”, the IC50 at 48 h was 1000 ± 200 nM. Also, the IC50 in data set [1] amounted to 800 ± 200 nM.
